From patent US8193175B2, “Ruthenium complexes for treating cancers” (Universite de Strasbourg, priority 2004, dated 2012) come the findings set out here.

The subject of series [1] is MOLT-4. The experiment in a line: Proliferation test (UptiBlue) on MOLT-4. It is filed as cell-based, human. Particulars: p53 expressing line; read-out: IC50, proliferation of MOLT-4 cells. The protocol: The products are tested on different cell lines. The cells used are RDM4 from a murine T lymphoma and a MOLT-4 line originating from an acute lymphoblastic leukemia. These cancer lines both express the p53 protein, unlike the HL-60 cells from a human promyelocytary leukemia where, following deletion of its gene, p53 is absent.
All of these cells are cultivated in RPMI 1640-Glutamax, supplemented by 10% calf foetal serum heat inactivated at 56° C. for 30 minutes, 1 mM sodium pyruvate, 1 mM non-essential amino acids and 50 μg/mL gentamycine (Life Technologies, Cergy Pontoise, France). The cultures are kept in an incubator at 37° C. with a moisture saturated atmosphere, with 5% CO2.
This test uses the UptiBlue reagent (Interchim, Montluçon, France), metabolised by the living cells. The cells are incubated on plates with 96 wells with 10^4 cells/well (200 μL) with the product and cultivated for 72 hours. Then, 20 μL UptiBlue are added to each well. After 3 hours incubation, the fluorescence of the samples contained in the plates is measured at 590 nm (excitation at 560 nm), using a Fluorolite 1000 microplate reader (Dynex technologies, Issy-Les-Moulineaux, France). […]

The subject of series [2] is 2008/CMV and 2008/ATP7B cells. The experiment in a line: MTT test on 2008/CMV and 2008/ATP7B cells. It is filed as cell-based. To be noted: 48 hrs. The method, then: FIG. 6: The 2008/CMV and 2008/ATP7B cells (contributed by Dr. Howell) were cultivated in plates with 96 wells in DMEM medium with 10% calf serum. At 30% confluence, the cells were treated for 48 hrs with cisplatinum or the various compounds derived from ruthenium in the concentrations indicated (1, 5, 15, 50 μM). The quantity of cells present in the wells was evaluated by an MTT (MTT, Sigma) test. The results obtained were related to the values of the control condition (100% viability). The graphs show an average of 8 points with the typical spacings over one experiment representative of 3 carried out. The thick black line indicates the IC50 for each graph.
One of these mechanisms is the overexpression of the copper export pump (ATP7B) which expels cisplatinum from the cell. It has been shown that this molecule is overexpressed in human tumours and that cell lines which overexpress this molecule are more resistant to cisplatinum and carboplatinum than control lines.
Two cell lines derived from 2008 cells (Katano, Safaei et al. 2003) were studied. One overexpresses the ATP7B pump, and the other only contains the control vector. The cytostatic activity of the cisplatinum and the CDR was tested in these two lines using the MTT test.
A general note: Tetrazolium assays rely on reduction of a dye to a coloured formazan, in cell work by metabolically active cells.

The subject of series [3] is U-87 cells (a human glioblastoma). The experiment in a line: In vivo test, U-87 cells grafted onto nude/nude SWISS mice. To be noted: 18.5 mg/Kg intraperitoneally per injection, accumulated dose 185 mg/Kg. The method, then: The animals are manipulated under a laminar flow hood. Ten nude/nude (athymic) eleven week old SWISS mice were grafted subcutaneously with U-87 cells (a human glioblastoma) on the left thigh. After 7 days, the tumours become apparent and treatment commences. The animals are separated into two groups of five, 5 mice are thus treated with D-PBS (control mice) and the 5 others with RDC-11 (treated mice).
For the treated mice, 2 mg of RDC-11 placed in solution in 4 mL hot D-PBS for each injection. 0.5 mL of this solution cooled down to ambient temperature is administered intraperitoneally to each mouse. For the control mice, 0.5 mL D-PBS at ambient temperature is administered in the same way.
The dose of RDC-11 injected is 18.5 mg/Kg mouse. The accumulated dose is therefore 185 mg/Kg.
The development of the apparent tumours was followed by measuring them with calipers, by weighing the mice and by scanning one mouse from each batch with a CT-scan after injecting a contrast product (Fenestra VC). The mice were individualised by a mark on the ear.
The volume of the apparent tumours was calculated according to the formula:
V=(4/3)*π*(L/2)*(I/2)^2 where L is the length and I the width measured.

Entries after “also recorded” stand apart in the source; their conditions may differ. Some results are limits rather than exact numbers.

With `N.N.[Cl][Pt][Cl]` [Cisplatinum, reference compound], the IC50 in series [1] was less than 500 nM. The “sensitivity of the line expressing ATP7B relative to the control line (MTT)” value in series [2] is “significantly less sensitive”.
As to “[Ru(C6H4-2-C5H4N)(phen)(NCMe)2]PF6 [Compound 11]”, the “toxicity in grafted mice” value in series [3] was “without any toxicity”. The “weight and volume of the tumours / tumoral growth” value in series [3] (listed as RDC-11) is given as “less in relation to the controls; also recorded: changes the nature of tumoral growth”.
